# Data: PubChem BioAssay (NCI)
#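 Briefly, cells in 96-well plates were exposed to five compound concentrations for 48 h, and endpoints were estimated by linear interpolation. At the GI50, growth is halved. TGI: concentration producing complete growth inhibition.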
# Columns and labels:
# Assay in all cases: NCI tumour cell line growth inhibition, 48 h
# [1] = system: PC-3 prostate
# [2] = system: CAKI-1 renal
# [3] = system: SN12C renal
# [4] = system: SW-620 colon
# [5] = system: RPMI-8226 leukemia
# [6] = system: CCRF-CEM leukemia
# [7] = system: SNB-75 CNS
# [8] = system: TK-10 renal
# [9] = system: SK-MEL-28 melanoma
# [10] = system: MOLT-4 leukemia
# [11] = system: ACHN renal
# [12] = system: OVCAR-3 ovarian
# [13] = system: DU-145 prostate
# [14] = system: COLO 205 colon
# [15] = system: HL-60(TB) leukemia
# [16] = system: OVCAR-5 ovarian
# [17] = system: A498 renal
# [18] = system: HCC-2998 colon
# [19] = system: MDA-MB-231 breast
# [20] = system: HCT-15 colon
# [21] = system: HT29 colon
# [22] = system: HS 578T breast
# [23] = system: UO-31 renal
# [24] = system: SNB-19 CNS
# [25] = system: HOP-62 NSCLC
# [26] = system: MDA-MB-435
# [27] = system: RXF 393 renal
# [28] = system: NCI-H226 lung
# [29] = system: BT-549 breast
# [30] = system: SK-MEL-5 melanoma
# [31] = system: KM12 colon
# [32] = system: K-562 leukemia
# [33] = system: SK-MEL-2 melanoma
structure (smiles),measurement,setting,value
Nc1cc(-c2c[nH]c3ccc(F)cc23)nc2cc(-c3c[nH]c4ccc(F)cc34)nn12,GI50,[1],2.11 µM
same,TGI,[1],5.31 µM
same,GI50,[2],2.03 µM
same,TGI,[2],5.29 µM
same,GI50,[3],1.92 µM
same,TGI,[3],3.73 µM
same,GI50,[4],1.78 µM
same,TGI,[4],3.3 µM
same,GI50,[5],3.05 µM
same,TGI,[5],> 100 µM
same,GI50,[6],3.13 µM
same,TGI,[6],> 100 µM
same,GI50,[7],16.3 µM
same,TGI,[7],36.6 µM
same,GI50,[8],2.22 µM
same,TGI,[8],4.19 µM
same,GI50,[9],1.83 µM
same,TGI,[9],3.33 µM
same,GI50,[10],2.33 µM
same,TGI,[10],7.29 µM
same,GI50,[11],1.88 µM
same,TGI,[11],3.46 µM
same,GI50,[12],1.75 µM
same,TGI,[12],3.19 µM
same,GI50,[13],2.21 µM
same,TGI,[13],4.73 µM
same,GI50,[14],1.74 µM
same,TGI,[14],3.15 µM
same,GI50,[15],1.94 µM
same,TGI,[15],5.36 µM
same,GI50,[16],1.83 µM
same,TGI,[16],3.77 µM
same,GI50,[17],1.66 µM
same,TGI,[17],3.25 µM
same,GI50,[18],1.95 µM
same,TGI,[18],3.47 µM
same,GI50,[19],1.85 µM
same,TGI,[19],3.49 µM
same,GI50,[20],1.79 µM
same,TGI,[20],3.69 µM
same,GI50,[21],1.8 µM
same,TGI,[21],3.31 µM
same,GI50,[22],2.35 µM
same,TGI,[22],5.71 µM
same,GI50,[23],1.68 µM
same,TGI,[23],3.45 µM
same,GI50,[24],3.03 µM
same,TGI,[24],8.97 µM
same,GI50,[25],2.06 µM
same,TGI,[25],5.85 µM
same,GI50,[26],1.74 µM
same,TGI,[26],3.39 µM
same,GI50,[27],1.88 µM
same,TGI,[27],3.48 µM
same,GI50,[28],2.28 µM
same,TGI,[28],5.52 µM
same,GI50,[29],13.3 µM
same,TGI,[29],34.9 µM
same,GI50,[30],1.84 µM
same,TGI,[30],3.28 µM
same,GI50,[31],2 µM
same,TGI,[31],4.26 µM
same,GI50,[32],2.92 µM
same,TGI,[32],> 100 µM
same,GI50,[33],14.6 µM
same,TGI,[33],35.3 µM
